Test results taken from EP2334184B1, “FUNGICIDAL MIXTURE, CONTAINING FENPROPIDIN AND PENCONAZOLE” (Syngenta Participations AG, priority 2008, dated 2010).

Legend:
rose varieties [1] = assay: Crop safety trials in Holland during the winter / dark season; assay type: in vivo
Method: The following trials were conducted in Holland during the winter period / dark season, when the total light radiation level is less than 2000 W/m^2 per day.
(§1) These treatments were applied to 8 different rose varieties, and phytotoxicity assessments made at 7 day intervals. A phytotoxicity score of greater than 2.0% indicates unacceptable phytotoxicity; a score of 1.0 to 2.0% is acceptable (but not ideal); a score of less than 1.0% is good.

rose varieties [2] = assay: Crop safety trials in Holland in April (summer trials); assay type: in vivo; details: Cv. Red Naomi
Method: as §1
Corresponding trials were conducted using selected treatments from table 9 above, in Holland in April, when the total light radiation level is above 2000 W/m^2 per day.

[3] = Cv. Grand Prix, 7DAA1 (7 days after first application)
[4] = Cv. Grand Prix, <2000 W/m^2 per day, 0DAA0

Compound | Percentage phytotoxicity (%) (rose varieties [1]; [3]) | Percentage phytotoxicity (%) (rose varieties [1]; Cv. Grand Prix, 7DAA2) | Percentage phytotoxicity (%) (rose varieties [1]; Cv. Grand Prix, 7DAA3) | Percentage phytotoxicity (%) (rose varieties [1]; Cv. Grand Prix, 14DAA3) | Percentage phytotoxicity (%) (rose varieties [1]; Cv. Grand Prix, 21DAA3) | Percentage phytotoxicity (%) (rose varieties [1]; [4]) | Percentage phytotoxicity (%) (rose varieties [1]; Cv. Red Naomi, 0DAA0) | Percentage phytotoxicity (%) (rose varieties [1]; Cv. Red Naomi, 6DAA2) | Percentage phytotoxicity (%) (rose varieties [1]; Cv. Red Naomi, 7DAA1) | Percentage phytotoxicity (%) (rose varieties [1]; Cv. Red Naomi, 7DAA3) | Percentage phytotoxicity (%) (rose varieties [1]; Cv. Red Naomi, 18DAA3) | Percentage phytotoxicity (%) (rose varieties [2]; 7DAA1) | Percentage phytotoxicity (%) (rose varieties [2]; 7DAA2) | Percentage phytotoxicity (%) (rose varieties [2]; 7DAA3) | Percentage phytotoxicity (%) (rose varieties [2]; 14DAA3) | Percentage phytotoxicity (%) (rose varieties [2]; >2000 W/m^2 per day, 0DAA0)
CCCC(Cn1cncn1)c1ccc(Cl)cc1Cl (stereo not drawn) [Treatment 8] | 0.0 | 0.0 | 1.3 | 0.0 | 0.0 | 0.0 | 0.0 | 0.7 | 1.3 | 0.7 | 0.0 | 0.0 | 0.0 | 0.0 | 0.0 | 0.0
CCCC(Cn1cncn1)c1ccc(Cl)cc1Cl (stereo not drawn) [Treatment 9] | 0.0 | 0.0 | 4.0 | 2.0 | 0.3 | 0.0 | 0.0 | 1.7 | 2.7 | 3.0 | 0.7 | – | – | – | – | –
